Consider 25 compounds from patent US6794365B2, “Malonic acid derivatives, processes for their preparation their use and pharmaceutical compositions containing them” (Aventis Pharma Deutschland GmbH, priority 2000, dated 2004).

Molecules are shown by their SMILES. Where a name gives a salt, the structure may show the parent alone.

One may read the Ki as the dissociation constant of the complex between target and ligand, obtained from inhibition or displacement.

Chain of factor Xa (P00742 235-488 limits assumed): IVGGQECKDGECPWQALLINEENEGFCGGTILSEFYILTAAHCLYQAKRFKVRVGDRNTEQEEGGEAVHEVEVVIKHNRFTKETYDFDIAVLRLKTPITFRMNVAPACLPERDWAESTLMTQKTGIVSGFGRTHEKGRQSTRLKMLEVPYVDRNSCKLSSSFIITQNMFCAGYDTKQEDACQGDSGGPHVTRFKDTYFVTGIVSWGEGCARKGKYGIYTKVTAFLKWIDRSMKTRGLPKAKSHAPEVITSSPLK
Chain of factor Xa (P00742 41-179 partner limits assumed): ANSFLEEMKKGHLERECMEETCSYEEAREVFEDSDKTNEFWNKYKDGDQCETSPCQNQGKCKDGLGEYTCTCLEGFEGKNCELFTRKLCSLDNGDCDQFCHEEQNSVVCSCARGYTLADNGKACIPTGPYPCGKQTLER

The assay deals with factor Xa (Homo sapiens, UniProt P00742). As to the kind of experiment: In vitro Factor Xa assay (Test 1a), chromogenic substrate S-2765. It is filed as biochemical. Details: purchased Enzyme Research Laboratories, Inc; South Bend, Ind. The note with it: Factor Xa inhibitory activity; Ki from IC50 corrected for substrate competition; 25° C., pH 7.8; read-out: Ki (FXa). The procedure:
Purified enzymes are used in chromogenic assays. To determine the inhibition constant, the IC50 value is corrected for competition with substrate using the formula: […] where Km is the Michaelis-Menten-constant (Y.-C. Chen and W. H. Prusoff, Biochem. Pharmacol. 22: […] (1973), which is incorporated herein by reference). TBS-PEG buffer (50 mM Tris-Cl, pH 7.8, 200 mM NaCl, 0.05% (w/v) PEG-8000, 0.02% (w/v) NaN3) is used for this assay. The IC50 is determined by combining in appropriate wells of a Costar half-area microtiter plate 25 μl human factor Xa (Enzyme Research Laboratories, Inc.; South Bend, Ind.) in TBS-PEG; 40 μl 10% (v/v) DMSO in TBS-PEG (uninhibited control) or various concentrations of the compound to be tested diluted in 10% (v/v) DMSO in TBS-PEG; and substrate S-2765 (N-benzyloxycarbonyl-[…]-nitroanilide; Kabi Pharmacia, Inc.; Franklin Ohio) in TBS-PEG. […] The initial velocity of chromogenic substrate hydrolysis is measured by the change in absorbance at 405 nm using a Bio-tek Instruments kinetic plate reader ([…] 25° C. during the linear portion of the time course (usually 1.5 min after addition of substrate).
On to `CN(C)C(=O)C(Cc1ccc(C(=N)NO)cc1)C(=O)N[C@H](C(=O)N[C@@H](CCCNC(=N)N)C(N)=O)C1CCCCC1` (single isomer, unassigned; less polar) [Example 3], for which the Ki came to 156 nM.

As to `C=CCOC(=O)[C@H](CCCNC(=N)N)NC(=O)[C@@H](NC(=O)C(Cc1ccc(C(=N)N)cc1)C(=O)N(C)Cc1ccccc1)C1CCCCC1` (single isomer, unassigned; less polar) [Example 6], the Ki stood at 1 nM. For `CC(C)C[C@H](NC(=O)[C@H](CCCNC(=N)N)NC(=O)[C@@H](NC(=O)C(Cc1ccc(N)cc1)C(=O)N(C(C)C)C(C)C)C1CCCCC1)C(=O)N1CCC[C@H]1C(N)=O` (single isomer, unassigned; less polar) [Example 97] the value was 40 nM; for `CCOC(=O)[C@H](CCCNC(=N)N)NC(=O)[C@@H](NC(=O)C(Cc1ccc(C(=N)N)cc1)C(=O)NCc1ccccc1)C1CCCCC1` (single isomer, unassigned; less polar) [Example 136], 10 nM; for `N=C(N)NCCC[C@H](NC(=O)[C@@H](NC(=O)C(Cc1ccc(C(=N)N)cc1)C(=O)NCc1ccccc1)C1CCCCC1)C(N)=O` (single isomer, unassigned; more polar) [Example 8], 35.1 nM. To `CC(C)C[C@H](NC(=O)[C@H](Cc1ccc[n+](C)c1)NC(=O)[C@@H](NC(=O)C(Cc1ccc(C(=N)N)cc1)C(=O)N(C(C)C)C(C)C)C1CCCCC1)C(=O)N1CCC[C@H]1C(N)=O` (single isomer, unassigned; more polar) [Example 94] belongs 1700 nM; to `CN(C)C(=O)C(Cc1ccc(C(=N)N)cc1)C(=O)N[C@H](C(=O)N(CC(N)=O)Cc1ccncc1)C1CCCCC1` (single isomer, unassigned; more polar) [Example 104], 6500 nM; to `N=C(N)NCCC[C@H](NC(=O)[C@@H](NC(=O)C(Cc1ccc(C(=N)NO)cc1)C(=O)NCc1ccccc1)C1CCCCC1)C(N)=O` (single isomer, unassigned; more polar) [Example 129], 360 nM. For `CN(C)C(=O)C(Cc1ccc(C(=N)N)cc1)C(=O)N1Cc2ccccc2C[C@H]1C(=O)N[C@@H](CCCNC(=N)N)C(N)=O` (stereo partly drawn) [Example 10, 2-[3-(4-Carbamimidoyl-phenyl)-2-dimethylcarbamoyl-propionyl]-1,2,3,4-tetrahydro-isoquinoline-3-(S)-carboxylic acid (1-(S)-carbamoyl-4-guanidino-butyl)-amide trifluoroacetic acid salt] the value was 604 nM; for `N=C(N)NCCC[C@H](NC(=O)[C@@H](NC(=O)C(Cc1ccc(C(=N)NO)cc1)C(=O)NCc1ccccc1)C1CCCCC1)C(N)=O` (stereo partly drawn) [Example 14, N-Benzyl-N′-[(S)-(1-(S)-carbamoyl-4-guanidino-butylcarbamoyl)-cyclohexyl-methyl]-2-[4-(N-hydroxycarbamimidoyl)-benzyl]-malonamide trifluoroacetic acid salt], 21.8 nM. Regarding `C=CCNC(=O)C(Cc1ccc(C(=N)N)cc1)C(=O)N[C@@H](Cc1ccc(N)cc1)C(=O)N[C@@H](CCCNC(=N)N)C(N)=O` (stereo partly drawn) [Example 17, N-Allyl-N′-[2-(4-amino-phenyl)-1-(S)-(1-(S)-carbamoyl-4-guanidino-butylcarbamoyl)-ethyl]-2-(4-carbamimidoyl-benzyl)-malonamide trifluoroacetic acid salt], the inhibition constant Ki is 2290 nM. For `CCC(C)[C@@H](C(=O)N[C@@H](CCCNC(=N)N)C(N)=O)N(C)C(=O)C(Cc1ccc(C(=N)N)cc1)C(=O)Nc1ccccc1` (stereo partly drawn) [Example 21, 2-(4-Carbamimidoyl-benzyl)-N-[1-(S)-(1-(S)-carbamoyl-4-guanidino-butylcarbamoyl)-2-methyl-butyl]-N-methyl-N′-phenyl-malonamide trifluoroacetic acid salt] the value was 8370 nM. To `CCCC[C@H](NC(=O)C(Cc1ccc(C(=N)N)cc1)C(=O)NC)C(=O)N[C@@H](CCCNC(=N)N)C(N)=O` (stereo partly drawn) [Example 28, 2-(4-Carbamimidoyl-benzyl)-N-[1-(S)-(1-(S)-carbamoyl-4-guanidino-butylcarbamoyl)-pentyl]-N′-methyl-malonamide trifluoroacetic acid salt] belongs 47 nM; to `CCCC[C@H](NC(=O)C(Cc1ccc(C(=N)N)cc1)C(=O)Nc1ccccc1)C(=O)N[C@@H](CCCNC(=N)N)C(N)=O` (stereo partly drawn) [Example 30, 2-(4-Carbamimidoyl-benzyl)-N-[1-(S)-(1-(S)-carbamoyl-4-guanidino-butylcarbamoyl)-pentyl]-N′-phenyl-malonamide trifluoroactic acid salt], 153 nM; to `N=C(N)NCCC[C@H](NC(=O)[C@H](Cc1ccc2ccccc2c1)NC(=O)C(Cc1ccc(C(=N)N)cc1)C(=O)Nc1ccccc1)C(N)=O` (stereo partly drawn) [Example 38, 2-(4-Carbamimidoyl-benzyl)-N-[1-(S)-(1-(S)-carbamoyl-4-guanidino-butylcarbamoyl)-2-naphthalen-2-yl-ethyl]-N′-phenyl-malonamide trifluoroacetic acid], 1100 nM. In the case of `CN(C)C(=O)C(Cc1ccc(C(=N)N)cc1)C(=O)N[C@@H](CCc1ccccc1)C(=O)N[C@@H](CCCNC(=N)N)C(N)=O` (stereo partly drawn) [Example 40, 2-(4-Carbamimidoyl-benzyl)-N-[1-(S)-(1-(S)-carbamoyl-4-guanidino-butylcarbamoyl)-3-phenyl-propyl]-N′,N′-dimethyl-malonamide trifluoroacetic acid salt], the Ki turned out to be 10.7 nM. For `C=CCNC(=O)C(Cc1ccc(C(=N)N)cc1)C(=O)N[C@@H](CCCN)C(=O)N[C@@H](CCCNC(=N)N)C(N)=O` (stereo partly drawn) [Example 45, N-Allyl-N′-[4-amino-1-(S)-(1-(S)-carbamoyl-4-guanidino-butylcarbamoyl)-butyl]-2-(4-carbamimidoyl-benzyl)-malonamide trifluoroacetic acid salt] the value was 26500 nM; for `N=C(N)NCCC[C@H](NC(=O)[C@H](CO)NC(=O)C(Cc1ccc(C(=N)N)cc1)C(=O)Nc1ccccc1)C(N)=O` (stereo partly drawn) [Example 54, 2-(4-Carbamimidoyl-benzyl)-N-[1-(S)-(1-(S)-carbamoyl-4-guanidino-butylcarbamoyl)-2-hydroxy-ethyl]-N′-phenyl-malonamide trifluoroacetic acid salt], 3010 nM. Regarding `CN(C)C(=O)C(Cc1ccc(C(=N)N)cc1)C(=O)N[C@H](C(=O)N[C@@H](CCCNC(=N)N)C(N)=O)c1ccccc1` (stereo partly drawn) [Example 56, 2-(4-Carbamimidoyl-benzyl)-N-[(S)-(1-(S)-carbamoyl-4-guanidino-butylcarbamoyl)-phenyl-methyl]-N′,N′-dimethyl-malonamide trifluoroacetic acid salt], the Ki was determined as 2.1 nM.

For the compound `N=C(N)NCCC[C@H](NC(=O)[C@@H](NC(=O)C(Cc1ccc(C(=N)N)cc1)C(=O)Nc1ccccc1)c1ccccc1)C(N)=O` (stereo partly drawn) [Example 58, 2-(4-Carbamimidoyl-benzyl)-N-[(S)-(1-(S)-carbamoyl-4-guanidino-butylcarbamoyl)-phenyl-methyl]-N′-phenyl-malonamide trifluoroacetic acid salt], the Ki was determined as 57.5 nM.

For `C=CCNC(=O)C(Cc1ccc(C(=N)N)cc1)C(=O)N[C@@H](COCc1ccccc1)C(=O)N[C@@H](CCCNC(=N)N)C(N)=O` (stereo partly drawn) [Example 61, N-Allyl-N′-[2-benzyloxy-1-(S)-(1-(S)-carbamoyl-4-guanidino-butylcarbamoyl)-ethyl]-2-(4-carbamimidoyl-benzyl)-malonamide trifluoroacetic acid salt], the inhibition constant Ki worked out at 957 nM. For `CN(C)C(=O)C(Cc1ccc(C(=N)N)cc1)C(=O)N[C@@H](CCC(=O)O)C(=O)N[C@@H](CCCNC(=N)N)C(=O)N[C@@H](CC1CCCCC1)C(N)=O` (stereo partly drawn) [Example 69, 4-(S)-[3-(4-Carbamimidoyl-phenyl)-2-dimethylcarbamoyl-propionylamino]-4-[1-(S)-(1-(S)-carbamoyl-2-cyclohexyl-ethylcarbamoyl)-4-guanidino-butylcarbamoyl]-butyric acid trifluoroacetic acid salt] the value was 285 nM; for `CCCC[C@@H](NC(=O)C(Cc1ccc(C(=N)N)cc1)C(=O)N(C)C)C(=O)N[C@@H](CCCNC(=N)N)C(=O)O` (stereo partly drawn) [Example 72, 2-(S)-{2-(R)-[3-(4-Carbamimidoyl-phenyl)-2-dimethylcarbamoyl-propionylamino]-hexanoylamino}-5-guanidino-pentanoic acid trifluoroacetic acid salt], 4300 nM; for `N=C(N)NCCC[C@H](NC(=O)[C@@H](NC(=O)C(Cc1ccc(C(=N)N)cc1)C(=O)NCc1ccccc1)C1CCCCC1)C(=O)O` (stereo partly drawn) [Example 82, 2-(S)-{2-(S)-[2-Benzylcarbamoyl-3-(4-carbamimidoyl-phenyl)-propionylamino]-2-cyclohexyl-acetylamino}-5-guanidino-pentanoic acid trifluoroacetic acid salt], 39.3 nM. For `C=CCNC(=O)C(Cc1ccc(C(=N)N)cc1)C(=O)N[C@@H](CCC(=O)O)C(=O)N[C@@H](CCCNC(=N)N)C(=O)N[C@@H](CC1CCCCC1)C(N)=O` (stereo partly drawn) [Example 89, 4-(S)-[2-Allylcarbamoyl-3-(4-carbamimidoyl-phenyl)-propionylamino]-4-[1-(S)-(1-(S)-carbamoyl-2-cyclohexyl-ethylcarbamoyl)-4-guanidino-butylcarbamoyl]-butyric acid trifluoroacetic acid salt] the value was 6480 nM.
